Where a name gives a salt, the structure may show the parent alone. Read-outs that look alike come from different tables or passages of the source.
Assays:
[1] = molecular target: T1, Human fibrinogen receptor (αIIbβ3) (Homo sapiens, UniProt P05106+P08514); assay: Purified IIb/IIIa receptor assay (solid phase receptor assay, competition with biotinylated vitronectin); type: binding; conditions: read-out: IIb/IIIa IC50
T1 construct: Human fibrinogen receptor (αIIbβ3) was purified from outdated platelets; from tissue; host or cells: outdated human platelets
Summary of the method: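 Competition format: 1 nM biotinylated vitronectin plus test compound (highest 1.0×10^−4 M), 2 h at room temperature on wells coated with platelet-derived αIIbβ3. Buffer was TBS containing 1.0 mM Ca, Mg, Mn, pH 7.4. HRP anti-biotin readout at 450 nm; normalized to maximum binding, four-parameter curve fit.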

[2] = molecular target: T2, Human vitronectin receptor (αvβ3) (Homo sapiens, UniProt P05106+P06756); assay: Vitronectin adhesion assay (solid phase receptor assay, competition with biotinylated vitronectin); type: binding; conditions: read-out: AvB3 IC50
T2 construct: Human vitronectin receptor (αvβ3) was purified from human placenta; from tissue; host or cells: human placenta
Summary of the method: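 Purified human αvβ3 coated overnight at 4 °C in TBS with 1.0 mM Ca++, Mg++, Mn++, pH 7.4; compounds (top final 1.0×10^−4 M) competed with 1 nM biotinylated vitronectin for 2 h at room temperature. Bound ligand detected by HRP anti-biotin/OPD at A450; values normalized to no-competitor controls, four-parameter curve fit.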

platelet rich plasma = assay: Human platelet rich plasma assay (ADP induced platelet aggregation); type: cell-based; conditions: ADP induced platelet aggregation in human platelet rich plasma, read-out: Human PRP
Procedure: Human Platelet Rich Plasma Assays
Healthy aspirin free donors were selected from a pool of volunteers. The harvesting of platelet rich plasma and subsequent ADP induced platelet aggregation assays were performed as described in Zucker, M. B., “Platelet Aggregation Measured by the Photometric Method”, Methods in Enzymology 169(1989):117-133. Standard venipuncture techniques using a butterfly allowed the withdrawal of 45 mL of whole blood into a 60 mL syringe containing 5 mL of 3.8% trisodium citrate. Following thorough mixing in the syringe, the anti-coagulated whole blood was transferred to a 50 mL conical polyethylene tube. The blood was centrifuged at room temperature for 12 minutes at 200×g to sediment non-platelet cells. Platelet rich plasma was removed to a polyethylene tube and stored at room temperature until used. Platelet poor plasma was obtained from a second centrifugation of the remaining blood at 2000×g for 15 minutes. Platelet counts are typically 300,000 to 500,000 per microliter. Platelet rich plasma (0.45 mL) was aliquoted into siliconized cuvettes and stirred (1100 rpm) at 37° C. for 1 minute prior to adding 50 uL of pre-diluted test compound. After 1 minute of mixing, aggregation was initiated by the addition of 50 uL of 200 uM ADP. Aggregation was recorded for 3 minutes in a Payton dual channel aggregometer (Payton Scientific, Buffalo, N.Y.). The percent inhibition of maximal response (saline control) for a series of test compound dilutions was used to determine a dose response curve.

| SMILES | IC50 [1] [nM] | IC50 [2] [nM] | IC50 (platelet rich plasma; Homo sapiens, Platelet) [nM] | IC50 (platelet rich plasma) [nM] |
| --- | --- | --- | --- | --- |
| C#C[C@H](CC(=O)O)NC(=O)CNC(=O)c1cccc(NC(=O)NCc2ccccc2)c1 [Example 44, 3S-[[2-[[[3-[[[(phenylmethyl)amino]carbonyl]amino]phenyl]carbonyl]amino]acetyl]amino]-4-pentynoic acid] | 998 | 0.33 | > 20000 | – |
| O=C(O)CCNC(=O)CNC(=O)c1cccc(NC(=O)NCc2ccccc2)c1 [Example 103, 3-[[2-[[[3-[[[(phenylmethyl)amino]carbonyl]amino]phenyl]carbonyl]amino]acetyl]amino]propanoic acid] | 19100 | 16.6 | > 20000 | – |
| O=C(O)CC(NC(=O)CNC(=O)c1cccc(NC(=O)NCc2cccnc2)c1)c1cccnc1 (stereo not drawn) [Example 127, β-[[2-[[[3-[[[3-pyridinylmethyl)amino]carbonyl]amino]phenyl]carbonyl]amino]acetyl]amino]pyridine-3-propanoic acid, bis trifluoroacetate salt] | 461 | 0.51 | > 200000 | – |
| O=C(O)CC(NC(=O)CNC(=O)c1cccc(NC(=O)NCc2cccc3ccccc23)c1)c1cccnc1 (stereo not drawn) [Example 131, β-[[2-[[[3-[[[(1-naphthalenylmethyl)amino]carbonyl]amino]phenyl]carbonyl]amino]acetyl]amino]pyridine-3-propanoic acid, trifluoroacetate salt] | 1760 | 3.82 | > 20000 | – |
| C#C[C@H](CC(=O)O)NC(=O)CNC(=O)c1cccc(N/C(=N/C#N)NC)c1 [Example 141, 3S-[[2-[[[3-[[(cyanoimino)(methylamino)methyl]amino]phenyl]carbonyl]amino]acetyl]amino]-4-pentynoic acid] | 125 | 3.09 | > 200000 | – |
| O=C(O)CC(NC(=O)CNC(=O)c1cccc(NC(=O)Nc2ccccc2)c1)c1ccc2c(c1)OCO2 (stereo not drawn) [Example 124, β-[[2-[[[3-3-[[(phenylamino]carbonyl]amino]phenyl]carbonyl]amino]acetyl]amino]-1,3-benzodioxole-5-propanoic acid] | 317 | 22 | > 20000 | – |
| N=C(N)Nc1cccc(C(=O)NCC(=O)NC(CC(=O)O)c2cc(Cl)cc(Br)c2O)c1 (racemic) [Example 233, (±)β-[[2-[[[3-[(aminoiminomethyl)amino]phenyl]carbonyl]amino]acetyl]amino]-3-bromo-5-chloro-2-hydroxybezenepropanoic acid, trifluoroacetate salt, monohydrate] | 647 | 3.31 | – | > 200000 |
| C#C[C@H](CC(=O)O)NC(=O)CNC(=O)c1cccc(NC(N)=O)c1 [Example 40, 3S-[[2-[[[3-(aminocarbonylamino)phenyl]carbonyl]amino]acetyl]amino]-4-pentynoic acid] | 834 | 10.3 | > 200000 | – |
| CCOC(=O)CC(NC(=O)CNC(=O)c1cccc(N/C(=N\C#N)NCc2cccnc2)c1)c1ccccc1 (stereo not drawn) [Example 145, ethyl β-[[2-[[[3-[[(cyanoimino)[3-pyridinylmethyl)amino]methyl]amino]phenyl]carbonyl]amino]acetyl]amino]benzenepropanoate, trifluoroacetate salt] | > 100000 | 2720 | – | – |
| CCOC(=O)CC(NC(=O)CNC(=O)c1cccc(NC(N)=O)c1)c1cccnc1 (stereo not drawn) [Example 109, ethyl β-[[2-[[[3-(aminocarbonylamino]phenyl]carbonyl]amino]acetylamino]pyridine-3-propanoate, trifluoroacetate salt] | > 100000 | 575 | – | – |
| COC(=O)CC(NC(=O)CNC(=O)c1cccc(NC(=N)N)c1)c1ccsc1 (racemic) [Example 57, (±)methyl β-[[2-[[[3-[(aminoiminomethyl)amino]phenyl]carbonyl]amino]acetyl]amino]thiophene-3-propanoate, trifluoroacetate salt] | 15300 | 1340 | – | – |
| N=C(N)Nc1cccc(C(=O)NCC(=O)NC(CC(=O)O)c2ccc(Br)cc2)c1 (racemic) [Example 187, (±)β-[[2-[[[3-[(aminoiminomethyl)amino]phenyl]carbonylamino]acetyl]amino]-4-bromobenzenepropanoic acid, trifluoroacetate salt] | 264 | 1.31 | – | – |
| N=C(N)Nc1cccc(C(=O)NCC(=O)NC(CC(=O)O)c2ccc(F)cc2)c1 (stereo not drawn) [Example 363, β-[[2-[[[3-[(aminoiminomethyl)amino]phenyl]carbonyl]amino]acetyl]amino]-4-fluorobenzenepropanoic acid, trifluoroacetate salt] | 509 | 2.12 | – | – |
| O=C(O)CC(NC(=O)CNC(=O)c1cccc(NC(=O)NCc2ccncc2)c1)c1cccnc1 (stereo not drawn) [Example 266, β-[[2-[[[3-[[[(4-pyridinylmethyl)amino]carbonyl]amino]phenyl]carbonyl]amino]acetyl]amino]pyridine-3-propanoic acid, (bis)trifluoroacetate salt] | 1810 | 0.77 | – | – |
| C/N=C(/Nc1cccc(C(=O)NCC(=O)NC(CC(=O)O)c2cc(Cl)cc(Cl)c2)c1)NC(C)C (racemic) [Example 296, (±)3,5-dichloro-β-[[2-[[[3-[[[(1-methylethyl)amino](methylimino)methyl]amino]phenyl]carbonyl]amino]acetyl]amino]benzenepropanoic acid, trifluoroacetate salt] | 9450 | 404 | – | – |
| CCOC(=O)CC(NC(=O)CNC(=O)c1cccc(NC(=O)Nc2ccccc2)c1)c1ccc2c(c1)OCO2 (stereo not drawn) [Example 123, ethyl β-[[2-[[[3-3-[[(phenylamino)carbonyl]amino]phenyl]carbonyl]amino]acetyl]amino]-1,3-benzodioxole-5-propanoate] | 85500 | 11800 | – | – |
| Cc1ccsc1C(CC(=O)O)NC(=O)CNC(=O)c1cccc(NC(=N)N)c1 (stereo not drawn) [Example 244, β-[[2-[[[3-[(aminoiminomethyl)amino]phenyl]carbonyl]amino]acetyl]amino]-3-methylthiophene-2-propanoic acid, trifluoroacetate salt] | 4560 | 17.6 | – | – |
| CCOC(=O)/N=C(/NC(=O)OCC)Nc1cccc(C(=O)NCC(=O)NC(CC(=O)O)c2cc(Cl)cc(Cl)c2)c1 (stereo not drawn) [Example 166, 3,5-dichloro-β-[[2-[[[3-[[[(ethoxycarbonyl)amino][(ethoxycarbonyl)imino]methyl]amino]phenyl]carbonyl]amino]acetyl]amino]benzenepropanoic acid] | 45900 | 13000 | – | – |
| CCOC(=O)CC(NC(=O)CNC(=O)c1cccc(N/C(=N/C#N)NCc2ccccn2)c1)c1ccccc1 (stereo not drawn) [Example 143, ethyl β-[[2-[[[3-[[(cyanoimino)[2-pyridinylmethyl)amino]methyl]amino]phenyl]carbonyl]amino]acetyl]amino]benzenepropanoate, trifluoroacetate salt] | > 100000 | 6700 | – | – |
| N=C(N)Nc1cccc(C(=O)NCC(=O)NC(CC(=O)O)CC(=O)Nc2cc(Cl)cc(Cl)c2)c1 (stereo not drawn) [Example 288, 3-[[2-[[[3-[(aminoiminomethyl)amino]phenyl]carbonyl]amino]acetyl]amino)-5-[(3,5-dichlorophenyl)amino]-5-oxopentanoic acid, trifluoroacetate salt] | 1060 | 8.62 | – | – |
| N=C(N)Nc1cccc(C(=O)NCC(=O)NC(CC(=O)O)c2ccc3c(c2)Cc2ccccc2-3)c1 (racemic) [Example 224, (±)β-[[2-[[[3-[(aminoiminomethyl)amino]phenyl]carbonyl]amino]acetyl]amino]-9H-fluorene-2-propanoic acid, trifluoroacetate salt] | 25.9 | 0.71 | – | – |
| C/N=C(\NCc1ccncc1)Nc1cccc(C(=O)NCC(=O)NC(CC(=O)O)c2ccc(F)cc2)c1 (racemic) [Example 299, (±)4-fluoro-β-[[2-[[[3-[[[(4-pyridinylmethyl)amino](methylimino)methyl]amino]phenyl]carbonyl]amino]acetyl]amino]benzenepropanoic acid, trifluoroacetate salt] | 927 | 109 | – | – |
| N=C(N)Nc1cccc(C(=O)NCC(=O)NC(CC(=O)O)c2cc(Br)cc(Br)c2)c1 (racemic) [Example 210, (±)β-[[2-[[[3-[(aminoiminomethyl)amino]phenyl]carbonyl]amino]acetyl]amino]-3,5-dibromobenzenepropanoic acid, trifluoroacetate salt] | 343 | 2.62 | – | – |

— patent US6831199B1, “Pyrimidine compounds and derivatives thereof” (G. D. Searle & Co., priority 1995, dated 2004)
